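Cultured in 96-well plates, cells were exposed to test compound for 48 hours across five concentrations. At the GI50, growth is halved.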 Activity calls are given as the source filed them. Cut-off read from the data, not from the text of the source: active = GI50 up to about 1.1 µM and inactive = higher.
Assays:
Assay in all cases: NCI anticancer screen, dose series, 48 h
U-251 = system: U-251
IGROV-1 = system: IGROV-1
CCRF-CEM = system: CCRF-CEM
NCI-H226 = system: NCI-H226
A498 = system: A498
T47D = system: T47D
SNB-19 = system: SNB-19
ACHN = system: ACHN
BT-549 = system: BT-549
CAKI-1 = system: CAKI-1
SK-MEL-2 = system: SK-MEL-2
SK-MEL-5 = system: SK-MEL-5
MDA-N = system: MDA-N
SK-MEL-28 = system: SK-MEL-28
RPMI-8226 = system: RPMI-8226
UO-31 = system: UO-31
M14 = system: M14
K562 = system: K562
NCI/ADR-RES = system: NCI/ADR-RES
KM12 = system: KM12

SMILES | GI50 (U-251) | GI50 (IGROV-1) | GI50 (CCRF-CEM) | GI50 (NCI-H226) | GI50 (A498) | GI50 (T47D) | GI50 (SNB-19) | GI50 (ACHN) | GI50 (BT-549) | GI50 (CAKI-1) | GI50 (SK-MEL-2) | GI50 (SK-MEL-5) | GI50 (MDA-N) | GI50 (SK-MEL-28) | GI50 (RPMI-8226) | GI50 (UO-31) | GI50 (M14) | GI50 (K562) | GI50 (NCI/ADR-RES) | GI50 (KM12)
COc1cc(O)c2c(O)c3c(c4c2c1[C@]1(C4)C(C)=CCCC1(C)C)[C@H](O)[C@@]1(O)CC(O)=C(C(N)=O)C(=O)[C@@]1(O)C3=O | 45.3 nM (active) | 643 nM (active) | 32.6 nM (active) | 239 nM (active) | 163 nM (active) | 365 nM (active) | 420 nM (active) | 209 nM (active) | 318 nM (active) | 294 nM (active) | 236 nM (active) | 175 nM (active) | 333 nM (active) | 873 nM (active) | 61.2 nM (active) | 340 nM (active) | 126 nM (active) | 123 nM (active) | 345 nM (active) | 346 nM (active)
C[C@]12CC[C@H](O)CC1=CC[C@@H]1[C@@H]2CC[C@]2(C)C(=N/N)/C(=N\O)C[C@@H]12 | 21600 nM (inactive) | 21000 nM (inactive) | 44200 nM (inactive) | 74300 nM (inactive) | 16700 nM (inactive) | > 100000 nM (inactive) | 35200 nM (inactive) | > 100000 nM (inactive) | 32800 nM (inactive) | > 100000 nM (inactive) | 88500 nM (inactive) | > 100000 nM (inactive) | 11900 nM (inactive) | – | > 100000 nM (inactive) | > 100000 nM (inactive) | > 100000 nM (inactive) | 14500 nM (inactive) | > 100000 nM (inactive) | 38200 nM (inactive)
CCCCCCCCCCNC1CC(OC2CC(O)(C(O)CO)Cc3c(O)c4c(c(O)c32)C(=O)c2c(OC)cccc2C4=O)OC(C)C1O (configuration not stated) | 986 nM (active) | 1740 nM (inactive) | 388 nM (active) | 1790 nM (inactive) | 1500 nM (inactive) | 1860 nM (inactive) | 1880 nM (inactive) | 1730 nM (inactive) | 1700 nM (inactive) | 1680 nM (inactive) | 1400 nM (inactive) | 1740 nM (inactive) | 1500 nM (inactive) | 1760 nM (inactive) | 839 nM (active) | 1770 nM (inactive) | 1690 nM (inactive) | 324 nM (active) | 1880 nM (inactive) | 1500 nM (inactive)
COc1cc2c(c(OC)c1OC)-c1ccc(SC)c(=O)cc1[C@@H](OC(=O)c1ccncc1)CC2 | < 10 nM (active) | < 10 nM (active) | < 10 nM (active) | < 10 nM (active) | < 11.6 nM (active) | > 61700 nM (inactive) | < 10 nM (active) | < 10 nM (active) | < 10 nM (active) | < 10 nM (active) | 407 nM (active) | < 10 nM (active) | < 10 nM (active) | – | < 10 nM (active) | < 10 nM (active) | < 10 nM (active) | < 10 nM (active) | < 10 nM (active) | < 10 nM (active)
C/C=N\n1c(C)c(C#N)c(C#N)c1N | > 100000 nM (inactive) | > 100000 nM (inactive) | > 100000 nM (inactive) | > 100000 nM (inactive) | > 100000 nM (inactive) | > 100000 nM (inactive) | > 100000 nM (inactive) | > 100000 nM (inactive) | > 100000 nM (inactive) | > 100000 nM (inactive) | > 100000 nM (inactive) | > 100000 nM (inactive) | > 100000 nM (inactive) | – | > 100000 nM (inactive) | > 100000 nM (inactive) | > 100000 nM (inactive) | > 100000 nM (inactive) | > 100000 nM (inactive) | > 100000 nM (inactive)
